The conditions of series [1]: 101.3 kPa, Liquid.
Series [2] can be described thus: xn = mol fraction of the nth substance listed. Conditions: 101.3 kPa, Liquid.

As a reminder, the mass density is mass per unit of volume.

Numbers after ± are expanded uncertainties.

With `COCCOCCO` [2-(2-methoxyethoxy)ethanol], the mass density in series [1] (293.15 K) was 1020.8 ± 1.4 kg/m3; in series [1] (298.15 K) it was 1016.4 ± 1.4 kg/m3; in series [1] (303.15 K) it was 1011.83 ± 1.5 kg/m3; in series [1] (308.15 K), 1007.69 ± 1.5 kg/m3; in series [1] (313.15 K) it was 1003.22 ± 1.5 kg/m3.
As to `COCCO` [2-methoxyethan-1-ol], the mass density is recorded as 964.88 ± 1 kg/m3 in series [1] (293.15 K); 960.29 ± 1.1 kg/m3 in series [1] (298.15 K); 955.76 ± 1.1 kg/m3 in series [1] (303.15 K); 951.1 ± 1.1 kg/m3 in series [1] (308.15 K); 946.54 ± 1.1 kg/m3 in series [1] (313.15 K).
As for `COCCO` [2-methoxyethan-1-ol] + CCOC(C)(C)C, the mass density in series [2] (293.15 K, x2 = 0) is on record as 964.88 ± 1 kg/m3; in series [2] (298.15 K, x2 = 0), 960.29 ± 1.1 kg/m3; in series [2] (303.15 K, x2 = 0) it was 955.76 ± 1.1 kg/m3; in series [2] (308.15 K, x2 = 0), 951.1 ± 1.1 kg/m3; in series [2] (313.15 K, x2 = 0), 946.54 ± 1.1 kg/m3.
In the case of `COCCOCCOCCO` [2-[2-(2-methoxyethoxy)ethoxy]ethanol], the mass density in series [1] (293.15 K) was found to be 1047.29 ± 1.9 kg/m3; in series [1] (298.15 K), 1042.97 ± 1.9 kg/m3; in series [1] (303.15 K), 1038.65 ± 1.9 kg/m3; in series [1] (308.15 K) it was 1034.33 ± 1.9 kg/m3; in series [1] (313.15 K), 1030.01 ± 2 kg/m3.
In the same order, the values of `CCOC(C)(C)C` [2-ethoxy-2-methylpropane] are 741.11 ± 0.61 kg/m3, 735.59 ± 0.65 kg/m3, 730.85 ± 0.69 kg/m3, 725.98 ± 0.73 kg/m3 and 720.69 ± 0.77 kg/m3.
`CCOC(C)(C)C` [2-ethoxy-2-methylpropane] + COCCOCCO: the mass density in series [2] (293.15 K, x1 = 1) turned out to be 741.11 ± 0.61 kg/m3; in series [2] (298.15 K, x1 = 1), 735.59 ± 0.65 kg/m3; in series [2] (303.15 K, x1 = 1), 730.85 ± 0.69 kg/m3; in series [2] (308.15 K, x1 = 1), 725.98 ± 0.73 kg/m3; in series [2] (313.15 K, x1 = 1), 720.69 ± 0.77 kg/m3.
For `CCOC(C)(C)C` [2-ethoxy-2-methylpropane] + COCCOCCOCCO the same measures were 741.11 ± 0.61 kg/m3, 735.59 ± 0.65 kg/m3, 730.85 ± 0.69 kg/m3, 725.98 ± 0.73 kg/m3 and 720.69 ± 0.77 kg/m3.

The record behind these values is the NIST ThermoML archive (doi:10.1016/j.jct.2004.09.014).
